According to patent publication US5278152A, “2-formylbenzylphosphonic acid derivatives useful for the treatment of diseases caused by viruses” (priority 1989, dated 1994):
“And” between values parts separate entries of the source, which are not always exact repeats. Identical values can stand only once. Counter-ions that a name gives are not always drawn. Like-named read-outs stand apart in the source and are kept apart here.

How the values were obtained:
viruses = details: literature; cited from earlier work
[1] = test system: myxoviruses (influenza A2); assay: microbe, parasite or virus in culture; assay type: cell-based, influenza A2 virus in Hela and Vero cells; details: read-out: MIC (minimum inhibitory concentration)
Herpes simplex Type 1 = Herpes simplex Type 1 infection of NMRI mice, survival; assay type: in vivo; details: twice daily over 2.5 days; for Surviving animals: groups of 5 mice
Protocol: Pathogen-free NMRI mice having a weight of about 15 g were infected intraperitoneally with Herpes simplex Type 1 and then treated intraperitoneally, orally or subcutaneously with the compounds mentioned in Table 1. The treatment was carried out twice daily over the course of 2.5 days, starting after infection. The result of treatment was determined on the basis of the course of the disease and the survival rate compared to the untreated infection controls. The controls received a water-solublemethylhydroxyethylcellulose (viscosity […], administered in 2% strength solution) instead of the compounds to be tested. The experiments were carried out using groups of 5 mice each per preparation.
The chemotherapeutic action of the compound A can be seen from Table 1.

influenza A2 = assay type: in vivo, NMRI mice; details: twice daily over 2.5 days; for Number of surviving animals: groups of 5 mice
in vitro = details: hela and vero cells
[2] = literature; cited from earlier work

## O=P(O)(O)CP(=O)(O)O [MDP, methylenediphosphonic acid]
viruses
  antiviral activity: exhibit antiviral activity

## O=Cc1ccccc1CP(=O)(O)O [B, 2-formylbenzylphosphonic acid di(triethylammonium) salt]
[1]
  MIC: 4.94 µg/mL
Herpes simplex Type 1; po, 3 mg/kg
  Average survival time: 7.0 days
  Surviving animals: 3
Herpes simplex Type 1; po, 10 mg/kg
  Average survival time: 8.3 days
  Surviving animals: 2
Herpes simplex Type 1; po, 30 mg/kg
  Average survival time: 6.0 days
  Surviving animals: 3
Herpes simplex Type 1; sc, 3 mg/kg
  Average survival time: 7.8 days
  Surviving animals: 2
Herpes simplex Type 1; sc, 10 mg/kg
  Average survival time: 7.0 days
  Surviving animals: 3
Herpes simplex Type 1; sc, 30 mg/kg
  Average survival time: 6.5 days
  Surviving animals: 3
Influenza A2; po, 1.5 mg/kg
  Average survival time: 8.5 days
  Number of surviving animals: 3
Influenza A2; po, 15 mg/kg
  Number of surviving animals: 5
Influenza A2; po, 150 mg/kg
  Average survival time: 7.0 days
  Number of surviving animals: 3
Influenza A2; sc, 1.5 mg/kg
  Average survival time: 8.5 days
  Number of surviving animals: 1
Influenza A2; sc, 15 mg/kg
  Average survival time: 8.0 days
  Number of surviving animals: 4
In vitro
  MNTC: > 400 µg/mL

## CCOP(=O)(Cc1ccccc1C=O)OCC [A, diethyl 2-formylbenzylphosphonate]
Herpes simplex Type 1; ip, 3 mg/kg
  Average survival time: 8.0 days
  Surviving animals: 0
Herpes simplex Type 1; ip, 10 mg/kg
  Average survival time: 9.0 days
  Surviving animals: 4
Herpes simplex Type 1; ip, 30 mg/kg
  Average survival time: 8.5 days
  Surviving animals: 3
Herpes simplex Type 1; po, 2.5 mg/kg
  Average survival time: 8.0 days
  Surviving animals: 4
Herpes simplex Type 1; po, 25 mg/kg
  Surviving animals: 5
Herpes simplex Type 1; po, 250 mg/kg
  Average survival time: 8.0 days
  Surviving animals: 4
Herpes simplex Type 1; sc, 2.5 mg/kg
  Average survival time: 9.0 days
  Surviving animals: 2
Herpes simplex Type 1; sc, 25 mg/kg
  Average survival time: 7.2 days
  Surviving animals: 0
Herpes simplex Type 1; sc, 250 mg/kg
  Average survival time: 8.4 days
  Surviving animals: 0
Influenza A2; po, 2.5 mg/kg
  Average survival time: 9.0 days
  Number of surviving animals: 4
Influenza A2; po, 3 mg/kg
  Average survival time: 8.0 days
  Number of surviving animals: 4
Influenza A2; po, 10 mg/kg
  Average survival time: 7.0 days
  Number of surviving animals: 4
Influenza A2; po, 25 mg/kg
  Average survival time: 6.3 days
  Number of surviving animals: 2
Influenza A2; po, 30 mg/kg
  Average survival time: 7.3 days
  Number of surviving animals: 2
Influenza A2; sc, 2.5 mg/kg
  Average survival time: 6.7 days
  Number of surviving animals: 2
Influenza A2; sc, 25 mg/kg
  Average survival time: 7.0 days
  Number of surviving animals: 3

## CCOP(=O)(Cc1ccccc1C1O[C@H](c2ccccc2)[C@H](C)N1C)OCC (single isomer, unassigned) [F, Diethyl 2-(3,4-dimethyl-5-phenyloxazolidin-2-yl)benzylphosphonate]
Influenza A2; po, 0.25 mg/kg
  Average survival time: 6.5 days
  Number of surviving animals: 3
Influenza A2; po, 2.5 mg/kg
  Average survival time: 6.5 days
  Number of surviving animals: 3
Influenza A2; po, 25 mg/kg
  Average survival time: 7.0 days
  Number of surviving animals: 2

## NC12CC3CC(CC(C3)C1)C2 [Amantadine, reference compound]
Influenza A2; po, 80 mg/kg
  Average survival time: 8.0 days
Influenza A2; po, 80 mg/kg, 80 mg/kg
  Number of surviving animals: 5 and 4
Influenza A2; sc, 80 mg/kg
  Number of surviving animals: 5

## CCOP(=O)(Cc1ccccc1C=NNC(=O)c1cccnc1)OCC [E, Diethyl 2-formylbenzylphosphonate nicotinic acid hydrazone]
Influenza A2; po, 0.25 mg/kg
  Average survival time: 8.0 days
  Number of surviving animals: 4
Influenza A2; po, 2.5 mg/kg
  Average survival time: 6.7 days
  Number of surviving animals: 3
Influenza A2; po, 25 mg/kg
  Average survival time: 6.0 days
  Number of surviving animals: 3

## O=C(O)P(=O)(O)O [PFA, phosphonoformic acid]
viruses
  antiviral activity: wide antiviral spectrum
[2]
  toxic side effects: some toxic side effects

## CCOP(=O)(Cc1ccccc1C=NNC(N)=S)OCC [D, Diethyl 2-formylbenzylphosphonate thiosemicarbazone]
Influenza A2; po, 0.25 mg/kg
  Average survival time: 8.0 days
  Number of surviving animals: 4
Influenza A2; po, 2.5 mg/kg
  Average survival time: 7.0 days
  Number of surviving animals: 1
Influenza A2; po, 25 mg/kg
  Average survival time: 7.3 days
  Number of surviving animals: 2

## CCOP(=O)(O)Cc1ccccc1C=O [C, monoethyl 2-formylbenzylphosphonate triethylammonium salt]
[1]
  MIC: 44.4 µg/mL
Herpes simplex Type 1; po, 3 mg/kg
  Average survival time: 9.0 days
  Surviving animals: 4
Herpes simplex Type 1; po, 10 mg/kg
  Average survival time: 8.0 days
  Surviving animals: 3
Herpes simplex Type 1; po, 30 mg/kg
  Average survival time: 8.3 days
  Surviving animals: 1
Herpes simplex Type 1; sc, 3 mg/kg
  Average survival time: 8.5 days
  Surviving animals: 1
Herpes simplex Type 1; sc, 10 mg/kg
  Average survival time: 8.0 days
  Surviving animals: 3
Herpes simplex Type 1; sc, 30 mg/kg
  Average survival time: 10.0 days
  Surviving animals: 4
Influenza A2; po, 0.25 mg/kg
  Number of surviving animals: 5
Influenza A2; po, 2.5 mg/kg
  Average survival time: 6.0 days
  Number of surviving animals: 2
Influenza A2; po, 25 mg/kg
  Number of surviving animals: 5
Influenza A2; sc, 0.25 mg/kg
  Number of surviving animals: 5
Influenza A2; sc, 2.5 mg/kg
  Number of surviving animals: 5
Influenza A2; sc, 25 mg/kg
  Average survival time: 7.5 days
  Number of surviving animals: 3
In vitro
  MNTC: > 400 µg/mL

## O=C(O)CP(=O)(O)O [PAA, phosphonoacetic acid]
viruses
  antiviral activity: exhibit antiviral activity
